In PubChem BioAssay (NCI):
“And” between values parts separate entries of the source, which are not always exact repeats. Equal values may be shown once.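 96-well plates; 48 h exposure; 5 concentrations. Endpoints by linear interpolation between flanking doses. Not reached: highest tested concentration assigned. GI50 = concentration required for 50% inhibition of growth. TGI denotes the concentration required for complete inhibition of growth.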

Legend:
Assay in all cases: NCI-60 cell line screen, 48 h
HT29 colon = system: HT29 colon
KM12 colon = system: KM12 colon
M14 melanoma = system: M14 melanoma
MDA-MB-435 = system: MDA-MB-435
NCI-H460 lung = system: NCI-H460 lung
NCI-H522 lung = system: NCI-H522 lung
OVCAR-4 ovarian = system: OVCAR-4 ovarian
SF-295 CNS = system: SF-295 CNS
SK-MEL-2 melanoma = system: SK-MEL-2 melanoma
U251 CNS = system: U251 CNS

SMILES | TGI (HT29 colon) | TGI (KM12 colon) [µM] | TGI (M14 melanoma) [µM] | TGI (MDA-MB-435) [µM] | TGI (NCI-H460 lung) | TGI (NCI-H522 lung) | TGI (OVCAR-4 ovarian) | TGI (SF-295 CNS) [µM] | TGI (SK-MEL-2 melanoma) | TGI (U251 CNS) [µM] | GI50 (KM12 colon) | GI50 (NCI-H460 lung) | GI50 (NCI-H522 lung) | GI50 (OVCAR-4 ovarian) | GI50 (SF-295 CNS) | GI50 (SK-MEL-2 melanoma) | GI50 (U251 CNS) | GI50 (HT29 colon) [µM] | GI50 (MDA-MB-435) [µM]
CCOC(=O)c1c(N2CCCC2)ncn(-c2ccccc2)c1=S | > 100 µM | > 100 | > 100 | > 100 | > 100 µM | > 100 µM | > 100 µM | > 100 | > 100 µM | > 100 | – | – | – | – | – | – | – | – | –
Cc1ccncc1.F[B-](F)(F)F.[Pt+2].c1ccc(-c2cccc(-c3ccccn3)n2)nc1 | 27.9 µM | 39.5 | 13.5 | > 81.4 | 23.3 µM | 36.3 µM | > 100 µM | 7.74 | > 100 µM | > 100 | – | – | – | – | – | – | – | – | –
[Cl][Pt+2][Cl].[NH-]C1CCCCC1[NH-] (centres undefined) | > 100 µM and 31 µM | > 100 | – | – | 17.9 µM and 36.1 µM and 14 µM | 20.7 µM and 38.2 µM and 12.4 µM | 64.2 µM and 90.5 µM and 47.1 µM | > 100 | > 74.1 µM and > 100 µM and 29.5 µM | > 100 | 80.6 µM and > 72.1 µM and 10.6 µM | 1.94 µM and 0.903 µM and 0.287 µM | 3.31 µM and 5.88 µM and 1.49 µM | 14.5 µM and 9.24 µM and 2.19 µM | 6.32 µM and 5.35 µM and 1.06 µM | 28.8 µM and 12.8 µM and 3.93 µM | 21 µM and 9.15 µM and 13.2 µM | – | –
Cc1cc(O)c(C(C)C)cc1SC#N | – | 31.4 | – | 27 | 33.4 µM | 24.9 µM | 28.5 µM | 31.2 | 35.7 µM | 31.8 | – | – | – | – | – | – | – | – | –
N=c1oc2ccc3ccccc3c2cc1C(N)=O | > 100 µM | 63 | > 100 | > 100 | > 100 µM | – | > 100 µM | – | 49.4 µM | > 100 | – | – | – | – | – | – | – | – | –
COc1cc2c(cc1OCCCC(=O)Nc1cc(C(=O)Nc3cc(C(=O)Nc4cc(C(=O)NCCCN(C)C)n(C)n4)n(C)n3)n(C)n1)N=CC1CCCN1C2=O (centres undefined) | 51.3 µM | 47 | 95.2 | 44.9 | > 100 µM | – | 35.7 µM | 86.6 | 48 µM | > 100 | – | – | – | – | – | – | – | – | –
COC(=O)C1CCC(=O)N1C(=O)Cc1ccc(OC)cc1 (centres undefined) | > 100 µM | > 100 | > 100 | – | > 100 µM | > 100 µM | > 100 µM | > 100 | – | > 100 | – | – | – | – | – | – | – | – | –
Cc1nc2c3c(ncn2n1)Oc1c(c(-c2ccccc2)nn1-c1ccccc1)C3c1ccc(Cl)cc1 (centres undefined) | > 100 µM | > 100 | > 100 | > 100 | > 100 µM | – | > 100 µM | > 100 | > 100 µM | > 100 | – | – | – | – | – | – | – | – | –
Clc1ccc(Cc2nc3ccccc3nc2-c2cccc(Br)c2)cc1 | 6.13 µM | 33.7 | 5.17 | 4.71 | 42.2 µM | 3.62 µM | – | 31.2 | 17.8 µM | 20.9 | – | – | – | – | – | – | – | – | –
CC1(C)OCC(C(O)C2OC(C)(C)OC2C=O)O1 (centres undefined) | > 100 µM | > 100 | > 100 | > 100 | – | – | > 100 µM | > 100 | > 100 µM | > 100 | – | – | – | – | – | – | – | – | –
Cc1cccc2c1[nH]c1[nH]c(=O)[nH]c(=O)c12 | > 100 µM | > 100 | > 100 | > 100 | – | > 100 µM | > 100 µM | > 100 | > 100 µM | – | – | – | – | – | – | – | – | – | –
CC[N+]1(C)CCC(O)(/C=C/c2ccc(OC)cc2)C(C(=O)/C=C/c2ccc(OC)cc2)C1 (centres undefined) | > 74.5 µM | 16.8 | 30.8 | 28.2 | > 35.6 µM | – | > 59.6 µM | 39.1 | 39.7 µM | 33.9 | – | – | – | – | – | – | – | – | –
O=C(NCc1cccc(C(F)(F)F)c1)c1cc2sccc2nc1C(F)(F)F | > 100 µM | > 100 | > 100 | > 100 | – | > 100 µM | > 100 µM | > 100 | > 100 µM | > 100 | – | – | – | – | – | – | – | – | –
Nc1ncnc2c1ncn2C1CCC(COS(N)(=O)=O)C1 (centres undefined) | > 100 µM | > 100 | > 100 | > 100 | > 100 µM | – | > 100 µM | > 100 | > 100 µM | > 100 | – | – | – | – | – | – | – | – | –
CN(C)c1nc(N(C)C)nc(N(C)C23CC4CC(CC(C4)C2)C3)n1 | – | > 100 | > 100 | > 100 | > 100 µM | 41 µM | > 100 µM | > 100 | 55.5 µM | > 100 | – | – | – | – | – | – | – | – | –
c1ccc(CCN2CCc3[nH]c4ccccc4c3C2)cc1 | 28.5 µM | 34.9 | 34 | 36 | 30.9 µM | – | > 100 µM | 35.2 | – | 31.9 | – | – | – | – | – | – | – | – | –
Clc1ccc(N2N=C(c3cccc(Nc4ccncc4)c3)CC2c2ccc3c(c2)OCO3)cc1 (centres undefined) | 6.55 µM | 3.18 | – | 3.02 | 3.29 µM | – | 3.25 µM | 3.29 | 4.59 µM | – | 1.67 µM | 1.77 µM | – | 1.69 µM | 1.79 µM | 2.09 µM | – | 2.44 | 1.53
CC(C)=CCC/C(C)=C/CC/C(C)=C/Cc1c(O)c2ccccc2oc1=O | > 100 µM | > 100 | > 100 | – | > 100 µM | > 100 µM | > 100 µM | > 100 | > 100 µM | > 100 | – | – | – | – | – | – | – | – | –
O=C(CCN1CCCC1)Nc1ccc2sc3ccccc3c(=O)c2n1 | 6.37 µM | 18.3 | 17.6 | 17.8 | – | 15.2 µM | 21.7 µM | 27.8 | 18 µM | 18.5 | – | – | – | – | – | – | – | – | –
Cc1ccc(C2=NOC(=O)[C@@H]3CCCC[C@@H]23)cc1 | > 100 µM | > 100 | > 100 | > 100 | – | > 100 µM | > 100 µM | > 100 | – | > 100 | – | – | – | – | – | – | – | – | –
O=C1NC(=O)/C(=C/c2ccc(S(=O)(=O)N/N=C/c3ccc(Cl)cc3)cc2)N1 | > 100 µM | > 100 | > 100 | > 100 | > 100 µM | – | > 100 µM | > 100 | > 100 µM | > 100 | – | – | – | – | – | – | – | – | –
Cc1cc(=O)n2nc(SCc3ccccc3)sc2n1 | > 100 µM | > 100 | > 100 | > 100 | > 100 µM | > 100 µM | > 100 µM | > 100 | – | > 100 | – | – | – | – | – | – | – | – | –
